Reference: US12590118B2, “Salt and crystal form of steroid derivative regulator” (Shanghai Hansoh Biomedical Co., Ltd., priority 2019, dated 2026)

Assays:
[1] = tested on: ICR mice; assay: Forced swimming model in mice; assay type: in vivo; details: for Mean (immobility, %): floating time/240 s; for immobility time during the latter four minutes compared with that of the model group: forced swimming, ICR mice
In short: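 Male ICR mice (25-35 g), 12 per group, dosed intragastrically at brain Tmax with 10 mg/kg or 5 mg/kg p.o. in 0.5% CMC-Na + 1% Tween 80. Forced swim 0.5-1 h post-dose for 6 min in 25-26° C. water, 18 cm deep. Immobility over last 4 min, given as floating time percentage of 240 s.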

[2] = tested on: CD-1 mice; assay: PTZ-induced epilepsy model in mice; assay type: in vivo; details: 3 mpk p.o., PTZ 120 mg/kg s.c., 30 min observation
Procedure: The PTZ-induced epilepsy model in CD-1 mice was established, and the antiepileptic effect of the compounds of Example 2, Example 40, Example 41 and Example 52 was evaluated using this model.
50 male CD-1 mice were purchased from Beijing Vital River Laboratory Animal Technology Co. Ltd. The test animals were adapted at the animal room in the third building of Shanghai ChemPartner Co., Ltd for 7 days before the experiment. The average body weight of the animals on the test day was 32.2±0.2 grams. Feeding environment: 5 animals/cage, room temperature 23±2° C., 12/12 hours of light and dark cycle, free access to food and water.
The mice were randomly grouped for the experiment on the test day.
Compounds of Example 2, Example 40, Example 41 and Example 52 (prepared by the applicant). The test compounds were stored in a refrigerator at 4° C.
4.2.3 Test Equipments • 1 ml sterile disposable syringe with needle (purchased from Zhejiang Kangdelai Medical Devices Co., Ltd.) • Pipette: Eppendorf Research Plus (100-1000 μL) • Vortex mixer: Kylin-Bell Vortex 5 • Ultrasonic instrument: JL-360 ultrasonic cleaner • Balance: METTLER TOLEDO XS204 precision balance • Balance: METTLER TOLEDO XS6002S electronic balance • Plexiglass box: 25 cm length*15 cm width*15 cm height with one opaque side wall, custom made by Suzhou Fengshi Laboratory Animal Equipment Co., Ltd • 3-channel timer: Oregon/Model NO. WB-388. 4.2.4 Test Animal Grouping • 1) Vehicle/PTZ: 0.5% CMC-Na+1% Tween-80 (10 ml/kg, p.o.), administered 0.5 hr before the PTZ administration; PTZ ([…], s.c.), administered before the experiment; • 2) 3 mg/kg of the compounds of Examples/PTZ: the compounds of Example 2, Example 40, Example 41 and Example 52 (3 mg/kg, 10 ml/kg, p.o.), administered 0.5 hr before the PTZ administration; PTZ ([…], s.c.), administered before the experiment. 4.3 Experimental Procedures 4.3.1 Solvent Formulation • 1) 0.5% CMC-Na+1% Tween-80 (administration volume: 10 mL/kg):
1 g of sodium carboxymethyl cellulose was precisely weighed and added to a 250 mL solvent bottle, then 150 mL of double-distilled water was added. The mixture was stirred at room temperature for 4 hours with a magnetic stirrer to obtain a uniform and clear solution. 2 mL of Tween-80 was slowly added, and the mixture was stirred at room temperature for 3 hours to obtain a uniform and clear solution. The solution was slowly transferred to a 200 mL volumetric flask, and double distilled water was added to the constant volume of 200 mL. The solution was transferred to a 250 mL solvent bottle, and stirred for 1 hour with a magnetic stirrer to obtain a uniform and clear solution. • 2) 30% hydroxypropyl-p-cyclodextrin:
248 mg of PTZ was precisely weighed and added to a 40 mL brown flask, then 20.667 mL of physiological saline was added. The mixture was mixed by vortex for 2 minutes, and treated by ultrasound at room temperature for 2 minutes to obtain a uniform and clear solution (concentration: 12 mg/mL). • 2) 0.3 mg/mL of the compounds of Example 5 or Example 23 (dose: 3 mg/kg; administration volume: 10 mL/kg): […]
4.4 Adaptation to the Environment
The mice were randomly grouped, marked and weighed; 10 mice per group. The test compound was administered orally at an administration volume of 10 mL/kg 30-60 minutes before the PTZ administration.
PTZ (120 mg/kg) was administrated subcutaneously before the experiment observation, and this time point was recorded as the observation start point; after the administration of PTZ, the animal was immediately placed in the observation box and observed for 30 minutes, and the followings were recorded: a) the incubation period of the first clonic seizure, b) the incubation period of the first generalized tonic seizure, c) the number of clonic seizures, d) the number of generalized tonic seizures, e) the time when the animal died.
All measurement data were expressed as Mean±SEM, and analysed with Prism 6.0 statistical software.

Row | SMILES | Mean (immobility, %) ([1]; dose 10 mpk p.o.) [%] | Mean (immobility, s) ([1]; dose 10 mpk p.o., latter four minutes of 6 min swim) [s] | immobility time during the latter four minutes compared with that of the model group [1] | Incubation period of the clonic seizure (sec) Mean ± SEM [2] [s] | Incubation period of the generalized tonic seizure (sec) Mean [2] [s] | Mortality rate (%) [2] [%] | Number of clonic seizures Mean [2] | Number of generalized tonic seizures Mean [2] | Time when the animal died (sec) Mean [2] [s]
1 | C[C@@H]1C[C@H](C(=O)Cn2ccc(C#N)n2)[C@@]2(C)CC[C@H]3[C@@H](CC[C@@H]4C[C@](C)(O)CC[C@@H]43)[C@H]12 [Example 40, 1-(2-((3R,5R,8R,9R,10S,13S,14S,15R,17S)-3-Hydroxy-3,13,15-trimethylhexadecahydro-1H-cyclopenta[a]phenanthren-17-yl)-2-oxoethyl)-1H-pyrazole-3-carbonitrile] | 35.30 | 84.90 | very significantly different | 1308.1 ± 170.1 | 1800.0 ± 0.0 | 0 | 0.5 ± 0.2 | 0.0 ± 0.0 | 1800.0 ± 0.0
2 | C[C@@]1(O)CC[C@H]2[C@H](CC[C@@H]3[C@@H]2CC[C@@]2(C)[C@H]3[C@@H]3C[C@@H]3[C@@H]2C(=O)Cn2ccc(C#N)n2)C1 [Example 2, 1-(2-((2R,4aS,4bR,6aS,7S,7aS,8aR,8bR,8cR,10aR)-2-Hydroxy-2,6a-dimethyloctadecahydrocyclopropa[4,5]cyclopenta[1,2-a]phenanthren-7-yl)-2-oxoethyl)-1H-pyrazole-3-carbonitrile] | 28.50 | – | very significantly different | 902.9 ± 200.8 | 1736.0 ± 63.2 | 10 | 1.3 ± 0.3 | 0.1 ± 0.1 | 1739.8 ± 60.2
